The nature of data set [1]: Calcium salt precipitation following acidising of calcium carbonate in fresh water. Type of data set: physicochemical. The source says: The dissolving capacities of delta glucono lactone and […] (a formic acid precursor commercially available from Cleansorb Limited of Guildford, UK) and their capacity for precipitation of calcium salts is shown in Table 1.
Data set [2] is described as follows: Calcium salt precipitation at 5° C. from spent acidizing solutions. Type of data set: physicochemical. As to conditions: 2.7 g CaCO3 in 100 ml, 65 hours at approximately 25° C., then 20 hours at 5° C. How it is done:
100 ml solutions were prepared in deionised water in 100 ml Duran bottles: 2.7 g of laboratory grade CaCO3 was added to each solution. Acidizing was allowed to proceed at room temperature (approximately 25° C.) for 65 hours. To simulate the effect of low temperature spent acidizing solutions were placed in a refrigerator at 5° C. and observed at 20 hours for the presence of any precipitate.

`O=C1O[C@H](CO)[C@@H](O)[C@H](O)[C@H]1O` [Glucono delta lactone, D-(+)-Gluconic acid δ-lactone]: the “Calcium salt precipitated following acidising of calcium carbonate in fresh water” value in data set [1] (acid precursor used at 1% w/v) is recorded as “No”; in data set [1] (acid precursor used at 2% w/v), “No”; in data set [1] (acid precursor used at 3% w/v), “Yes”; in data set [1] (acid precursor used at 5% w/v), “Yes”; in data set [1] (acid precursor used at 10% w/v) it was “Yes”. Also, the “Calcium salt precipitated at 5° C. following acidising” value is “No” in data set [2] (10% w/v glucono delta lactone plus sodium acetate 5% w/v); “No” in data set [2] (10% w/v glucono delta lactone plus sodium lactate 60% solution 10.8% w/v); “Yes” in data set [2] (10% w/v glucono delta lactone, no additional component); “No” in data set [2] (22% w/v glucono delta lactone plus sodium acetate 5% w/v); “No” in data set [2] (22% w/v glucono delta lactone plus sodium lactate 60% solution 10.8% w/v); “Yes” in data set [2] (22% w/v glucono delta lactone, no additional component).

(Values after US10604696B2, “Process for acidizing” (Cleansorb Limited, priority 2014, dated 2020).)
